# Target: T1, Mcl-1/Bim interaction, recombinant human Mcl-1 (171-327) (Homo sapiens, UniProt Q07820)
# T1 construct: made in house
# Test: Cell free Mcl-1: Bim Affinity Assay (Mcl-1 HTRF)
# Format: binding
# Conditions: TR-FRET, 0.1 nM Mcl-1 (171-327), 0.05 nM biotin-Bim (51-76)
# Summary of the method: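 Biotin-Bim(51-76) peptide, TR-FRET readout, overnight incubation; IC50 from duplicate competition curves, 4-parameter fit.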
# T1 sequence (Q07820 171-327): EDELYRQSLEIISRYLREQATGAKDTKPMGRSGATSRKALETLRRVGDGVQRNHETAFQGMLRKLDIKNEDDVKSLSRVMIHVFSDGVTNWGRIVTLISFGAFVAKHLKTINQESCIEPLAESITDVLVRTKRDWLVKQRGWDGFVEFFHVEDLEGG
row,IC50 [nM],SMILES
1,6.85,"COC[C@H]1C/C=C/[C@H](OC)[C@@H]2CC[C@H]2CN2C[C@@]3(CCCc4cc(Cl)ccc43)COc3ccc(cc32)C(=O)NS(=O)(=O)[C@@H]1C [Example 2, (1S,3′R,6′R,7′S,8′E,11′R,12′R)-6-chloro-7′-methoxy-11′-(methoxymethyl)-12′-methyl-3,4-dihydro-2H,15′H-spiro[naphthalene-1,22′-[20]oxa[13]thia[1,14]diazatetracyclo[14.7.2.0^3,6.0^19,24]pentacosa [8,16,18,24]tetraen]-15′-one 13′,13′-dioxide]"
2,23.1,"CO[C@@H]1/C=C/CCS(=O)(=O)NC(=O)c2ccc3c(c2)N(C[C@@H]2CC[C@H]21)C[C@@]1(CCCc2cc(Cl)ccc21)CO3 [Example 225, (1S,3′R,6′R,7′R,8′E)-6-chloro-7′-methoxy-3,4-dihydro-2H,14′H-spiro[naphthalene-1,21′-[19]oxa[12]thia[1,13]diazatetracyclo[13.7.2.0^3,6.0^18,23]tetracosa [8,15,17,23]tetraen]-14′-one 12′,12′-dioxide]"
3,3.06,"O=C1NS(=O)(=O)[C@@H]2CC[C@H]2CCC[C@H](O)[C@@H]2CC[C@H]2CN2C[C@@]3(CCCc4cc(Cl)ccc43)COc3ccc1cc32 [Example 91, (1S,3′R,6′R,7′S,11′R,14′R)-6-chloro-7′-hydroxy-3,4-dihydro-2H,17′H-spiro[naphthalene-1,24′-[22]oxa[15]thia[1,16]diazapentacyclo[16.7.2.0^3,6.0^11,14.0^21,26]heptacosa[18,20,26]trien]-17′-one 15′,15′-dioxide]"
4,0.865,"CC[C@@H]1CC/C=C/[C@H](OCC(=O)NC(C)C)[C@@H]2CC[C@H]2CN2C[C@@]3(CCCc4cc(Cl)ccc43)COc3ccc(cc32)C(=O)NS1(=O)=O [Example 422, 2-(((1S,3′R,6′R,7′S,8′E,12′R)-6-chloro-12′-ethyl-13′,13′-dioxido-15′-oxo-3,4-dihydro-2H-spiro[naphthalene-1,22′-[20]oxa[13]thia[1,14]diazatetracyclo[14.7.2.0^3,6.0^19,24]pentacosa [8,16,18,24]tetraen]-7′-yl)oxy)-N-(1-methylethyl)acetamide]"
5,0.943,"CC[C@@H]1CC/C=C/[C@H](OCCS(C)(=O)=O)[C@@H]2CC[C@H]2CN2C[C@@]3(CCCc4cc(Cl)ccc43)COc3ccc(cc32)C(=O)NS1(=O)=O [Example 981, (1S,3′R,6′R,7′S,8′E,12′R)-6-chloro-12′-ethyl-7′-(2-(methylsulfonyl)ethoxy)-3,4-dihydro-2H,15′H-spiro[naphthalene-1,22′-[20]oxa[13]thia[1,14]diazatetracyclo[14.7.2.0^3,6.0^19,24]pentacosa [8,16,18,24]tetraen]-15′-one 13′,13′-dioxide]"
6,0.557,"CC[C@@H]1CC/C=C/[C@@H](NC(C)=O)[C@@H]2CC[C@H]2CN2C[C@@]3(CCCc4cc(Cl)ccc43)COc3ccc(cc32)C(=O)NS1(=O)=O (single isomer, unassigned) [Example 1078]"
7,2.91,CC[C@@H]1CC/C=C/[C@H](OCCO[C@H]2CCCCO2)[C@@H]2CC[C@H]2CN2C[C@@]3(CCCc4cc(Cl)ccc43)COc3ccc(cc32)C(=O)NS1(=O)=O (mixture of isomers) [Example 969]
8,1.59,"CC[C@@H]1CC/C=C/[C@H](OCC(C)(C)O)[C@@H]2CC[C@H]2CN2C[C@@]3(CCCc4cc(Cl)ccc43)COc3ccc(cc32)C(=O)NS1(=O)=O [Example 972, (1S,3′R,6′R,7′S,8′E,12′R)-6-chloro-12′-ethyl-7′-(2-hydroxy-2-methylpropoxy)-3,4-dihydro-2H,15′H-spiro[naphthalene-1,22′-[20]oxa[13]thia[1,14]diazatetracyclo[14.7.2.0^3,6.0^19,24]pentacosa [8,16,18,24]tetraen]-15′-one 13′,13′-dioxide]"
9,35.8,"C[C@@H]1[C@H](C)/C=C/[C@H](O)[C@@H]2CC[C@H]2CN2C[C@@]3(CCCc4cc(Cl)ccc43)COc3ccc(cc32)C(=O)NS(=O)(=O)[C@H]1C (single isomer, unassigned) [Example 1044]"

row,SMILES,IC50 [nM]
1,"O=C1NS(=O)(=O)[C@@H](CO)CC/C=C\C[C@@H]2CC[C@H]2CN2C[C@@]3(CCCc4cc(Cl)ccc43)COc3ccc1cc32 (single isomer, unassigned) [Example 451]",11.5

# Same assay, conditions: cell free Mcl-1:Bim TR-FRET, recombinant human Mcl-1 (171-327)
row,SMILES,IC50 [nM]
1,"COc1cccc(NC(=O)C[C@@H]2CC/C=C/[C@H](O)[C@@H]3CC[C@H]3CN3C[C@@]4(CCCc5cc(Cl)ccc54)COc4ccc(cc43)C(=O)NS2(=O)=O)c1 (single isomer, unassigned) [Example 628]",3.9
2,"O=C1NS(=O)(=O)CCCC[C@@H](O)[C@H](O)[C@@H]2CC[C@H]2CN2C[C@@]3(CCCc4cc(Cl)ccc43)COc3ccc1cc32 (single isomer, unassigned) [Example 853, (1S,3′R,6′R,7′R,8′R)-6-chloro-7′,8′-dihydroxy-3,4-dihydro-2H,15′H-spiro[naphthalene-1,22′-[20]oxa[13]thia[1,14]diazatetracyclo[14.7.2.0^3,6.0^19,24]pentacosa [16,18,24]trien]-15′-one 13′,13′-dioxide or (1S,3′R,6′R,7′S,8′S)-6-chloro-7′,8′-dihydroxy-3,4-dihydro-2H,15′H-spiro[naphthalene-1,22′-[20]oxa[13]thia[1,14]diazatetracyclo[14.7.2.0^3,6.0^19,24]pentacosa [16,18,24]trien]-15′-one 13′,13′-dioxide]",11.7
3,"CC[C@@H]1CCCC[C@H](O)[C@@H]2CC[C@H]2CN2C[C@@]3(CCc4cc(Cl)ccc43)COc3ccc(cc32)C(=O)NS1(=O)=O (single isomer, unassigned) [Example 695, (1S,3′R,6′R,7′S,12′R)-5-chloro-12′-ethyl-7′-hydroxy-2,3-dihydro-15′H-spiro[indene-1,22′-[20]oxa[13]thia[1,14]diazatetracyclo[14.7.2.0^3,6.0^19,24]pentacosa [16,18,24]trien]-15′-one 13′,13′-dioxide or (1S,3′R,6′R,7′S,12′S)-5-chloro-12′-ethyl-7′-hydroxy-2,3-dihydro-15′H-spiro[indene-1,22′-[20]oxa[13]thia[1,14]diazatetracyclo[14.7.2.0^3,6.0^19,24]pentacosa [16,18,24]trien]-15′-one 13′,13′-dioxide]",2.04
4,"CC(=O)N[C@@H]1CCCCCS(=O)(=O)NC(=O)c2ccc3c(c2)N(C[C@@H]2CC[C@H]21)C[C@@]1(CCCc2cc(Cl)ccc21)CO3 (single isomer, unassigned) [Example 935, N-((1S,3′R,6′R,7′R)-6-chloro-13′,13′-dioxido-15′-oxo-3,4-dihydro-2H-spiro[naphthalene-1,22′-[20]oxa[13]thia[1,14]diazatetracyclo[14.7.2.0^3,6.0^19,24]pentacosa [16,18,24]trien]-7′-yl)acetamide or N-((1S,3′R,6′R,7′S)-6-chloro-13′,13′-dioxido-15′-oxo-3,4-dihydro-2H-spiro[naphthalene-1,22′-[20]oxa[13]thia[1,14]diazatetracyclo[14.7.2.0^3,6.0^19,24]pentacosa [16,18,24]trien]-7′-yl)acetamide]",2.07
5,"C[C@@H]1CCC[C@H](O)[C@@H]2CC[C@H]2CN2C[C@@]3(CCCc4cc(Cl)ccc43)COc3ccc(cc32)C(=O)NS1(=O)=O [Example 761, (1S,3′R,6′R,7′S,11′R)-6-chloro-7′-hydroxy-11′-methyl-3,4-dihydro-2H,14′H-spiro[naphthalene-1,21′-[19]oxa[12]thia[1,13]diazatetracyclo[13.7.2.0^3,6.0^18,23]tetracosa[15,17,23]trien]-14′-one 12′,12′-dioxide]",1.78
6,"O=C1NS(=O)(=O)C[C@H](O)/C=C/C[C@H](O)[C@@H]2CC[C@H]2CN2C[C@@]3(CCCc4cc(Cl)ccc43)COc3ccc1cc32 (single isomer, unassigned) [Example 598]",1.49
7,"C[C@@H]1CCC2=NO[C@H](C2)[C@@H]2CC[C@H]2CN2C[C@@]3(CCCc4cc(Cl)ccc43)COc3ccc(cc32)C(=O)NS1(=O)=O (single isomer, unassigned) [Example 609]",3.84
8,"CC#CC1=CC(O)CCC(C)S(=O)(=O)NC(=O)c2ccc3c(c2)N(CC2CCC12)CC1(CCCc2cc(Cl)ccc21)CO3 (single isomer, unassigned) [Example 605]",0.943
9,"C[C@@H]1CC/C=C/[C@H](NC(=O)N(C)C)[C@@H]2CC[C@H]2CN2C[C@@]3(CCCc4cc(Cl)ccc43)COc3ccc(cc32)C(=O)NS1(=O)=O [Example 601, 3-((1S,3′R,6′R,7′S,8′E,12′R)-6-chloro-12′-methyl-13′,13′-dioxido-15′-oxo-3,4-dihydro-2H-spiro[naphthalene-1,22′-[20]oxa[13]thia[1,14]diazatetracyclo[14.7.2.0^3,6.0^19,24]pentacosa [8,16,18,24]tetraen]-7′-yl)-1,1-dimethylurea-trifluoroacetate]",1.33
10,"COC[C@@H]1C/C=C/[C@H](O)[C@@H]2CC[C@H]2CN2C[C@@]3(CCCc4cc(Cl)ccc43)COc3ccc(cc32)C(=O)NS1(=O)=O (single isomer, unassigned) [Example 773]",2.35
11,"O=C1NS(=O)(=O)C/C=C/[C@H](O)CC[C@@H]2CC[C@H]2CN2C[C@@]3(CCCc4cc(Cl)ccc43)COc3ccc1cc32 (single isomer, unassigned) [Example 500]",7.08
12,"O=C(C[C@@H]1CC/C=C/[C@H](O)[C@@H]2CC[C@H]2CN2C[C@@]3(CCCc4cc(Cl)ccc43)COc3ccc(cc32)C(=O)NS1(=O)=O)Nc1ccccc1 (single isomer, unassigned) [Example 630]",1.61
13,"CC(C)[C@@H]1CCCC[C@@H](O)[C@@H]2CC[C@H]2CN2C[C@@]3(CCCc4cc(Cl)ccc43)COc3ccc(cc32)C(=O)NS1(=O)=O (single isomer, unassigned) [Example 754]",8.93
